Experimental data published in patent US7919623B2, “Naphthyridine derivatives having inhibitory activity against HIV integrase” (Shionogi & Co., Ltd., priority 2004, dated 2011).

Key:
HIV integrase = HIV integrase (Human immunodeficiency virus type 1 group M subtype B, UniProt P04585); test: biochemical
Experimental: The inhibitory activities against integrase were determined by the assay described below. • (1) Preparation of DNA Solutions
Before using the DNA solutions, complementary chains were annealed by slowly cooling after boiling.
Streptavidin, obtained from Vector Laboratories, was dissolved in 0.1 M carbonate buffer (composition: 90 mM Na2CO3, 10 mM NaHCO3) at concentration of 40 μg/ml. After coating each well of immunoplates (obtained from NUNC) with 50 μl of the above solution at 4° C. over night, each well was washed twice with PBS (composition: 13.7 mM NaCl, 0.27 mM KCl, 0.43 mM Na2HPO4, 0.14 mM KH2PO4) and blocked with 300 μl of 1% skim milk in PBS for 30 min. Additionally, each well was washed twice with PBS and added 50 μl of substrate DNA solution (2 pmol/μl). The immunoplates were kept at room temperature for 30 min while shaking. Then, each well was washed twice with PBS and once with the distilled water.
Subsequently, in the each well prepared above were added 51 μl of the reaction solution prepared from 12 μl of the buffer (composition: 150 mM MOPS (pH7.2), 75 mM MnCl2, 50 mM 2-mercaptoethanol, 25% glycerol, 500 μg/ml bovine serum albumin-fraction V), and 39 μl of the distilled water. Then 9 μl of an integrase solution (30 pmol) was added and mixed well. In the well of negative control (NC) was added 9 μl of the integrase dilution buffer (composition: 20 mM MOPS (pH7.2), 400 mM potassium glutamate, 1 mM EDTA, 0.1% NP-40, 20% glycerol, 1 mM DTT, 4M urea), and mixed well using a plate mixer.
The plates were incubated at 30° C. for 60 minutes. The reaction solution was removed and washed three times with 250 μl of washing buffer (composition: 150 mM MOPS (pH7.2), 50 mM 2-mercaptoethanol, 25% glycerol, 500 μg/ml bovine serum albumin-fraction V).
Then each well was added with 53 μl of reaction solution prepared from 12 μl of buffer (composition: 150 mM MOPS (pH7.2), 75 mM MgCl2, 50 mM 2-mercaptoethanol, 25% glycerol, 500 μg/ml bovine serum albumin-fraction V) and 41 μl of distilled water. Further, each well was added with 6 μl of DMSO solution of a compound to be tested, and the well of positive control (PC) was added with 6 μl of DMSO, and mixed well by a plate mixer. After incubating the plate for 30 minutes at 30° C., was added 1 μl of target DNA (5 pmol/μl), and mixed well by a plate mixer.
After incubation for 10 minutes at 30° C., each plate was washed twice with PBS after removal of the reaction solution. Then, 100 μl of ×2000 diluted solution of anti-digoxigenin antibody labeled with alkaline phosphatase (sheep Fab fragment: Boehringer) was added allowed to bind for 1 hour at 30° C., and washed twice with PBS containing 0.05% Tween20 and once with PBS in this sequence. Next, 150 μl of the Alkaline phosphatase coloring buffer (composition: 10 mM p-Nitrophenylphosphate (obtained from Vector Laboratories), 5 mM MgCl2, 100 mM NaCl, 100 mM Tris-HCl (pH 9.5)) was added and allowed to react for 2 hours at 30° C. Then the reaction was terminated by the addition of 50 μl of 1N NaOH solution. The optical density at 405 nm (OD405nm) of each well was measured and the inhibition rate (IC50) was determined by the following expression. The inhibition rate(%)=100[1−{(C abs.−NC abs.)/(PC abs.−NC abs.)}]
C abs.; the OD of the well of the compound
NC abs.: the OD of the negative control (NC)
PC abs.: the OD of the positive control (PC)

Structure (SMILES) | melting point | IC50 (HIV integrase)
COCCNC(=O)c1nc(C(=O)OC)c2cc(Cc3ccc(F)cc3)cnc2c1O [Example A-1, Methyl 3-(4-fluorobenzyl)-8-hydroxy-7-(2-methoxyethylcarbamoyl) [1,6]naphthyridine-5-carbonate] | 168 to 169 °C | 5.81 nM
COCCNC(=O)c1nc(NC(C)=O)c2cc(Cc3ccc(F)cc3)cnc2c1O [Example A-2, 5-acetylamino-3-(4-fluorobenzyl)-8-hydroxy[1,6]naphthyridine-7-carboxylic acid 2-methoxyethyl amide] | 216 to 217 °C | 46.1 nM
COCCNC(=O)c1nc(C(=O)OCCOC)c2cc(Cc3ccc(F)cc3)cnc2c1O [Example A-5, 3-(4-fluorobenzyl)-8-hydroxy-7-(2-methoxyethylcarbamoyl)[1,6]naphthyridine-5-carboxylic acid 2-methoxyethyl ester] | 139 to 141 °C | 
COCCNC(=O)c1nc(C(=O)OC2CCN(C(C)=O)CC2)c2cc(Cc3ccc(F)cc3)cnc2c1O [Example A-6, 3-(4-fluorobenzyl)-8-hydroxy-7-(2-methoxyethylcarbamoyl)[1,6]naphthyridine-5-carboxylic acid 1-acetylpiperidine-4-yl ester] | 92 to 94 °C | 
COCCNC(=O)c1nc(C)c2cc(Cc3ccc(F)cc3)cnc2c1O [Example B-2, 3-(4-fluorobenzyl)-8-hydroxy-5-methyl[1,6]naphthyridine-7-carboxylic acid (2-methoxyethyl)amide] | 167 to 168 °C | 20 nM
COCCNC(=O)c1nc(C(C)O)c2cc(Cc3ccc(F)cc3)cnc2c1O (centres unmarked) [Example B-3, 3-(4-fluorobenzyl)-8-hydroxy-5-(1-hydroxyethyl)[1,6]naphthyridine-7-carboxylic acid (2-methoxyethyl) amide] | 179 °C | 17 nM
COCC=Cc1nc(C(=O)NCCOC)c(O)c2ncc(Cc3ccc(F)cc3)cc12 [Example B-4, 3-(4-fluorobenzyl)-8-hydroxy-5-(3-methoxypropenyl)[1,6]naphthyridine-7-carboxylic acid (2-methoxyethyl)amide] | 125 to 126 °C | 11.3 nM
COCCCNC(=O)c1nc(NC(=O)COC)c2cc(Cc3ccc(F)cc3)cnc2c1O [Example B-5, 3-(4-fluorobenzyl)-8-hydroxy-5-(2-methoxyacetylamino)[1,6]naphthyridine-7-carboxylic acid (3-methoxypropyl) amide] | 159 to 160 °C | 39.4 nM
COCC(=O)Nc1nc(C(=O)NCCN(C(C)C)C(C)C)c(O)c2ncc(Cc3ccc(F)cc3)cc12 [Example B-6, 3-(4-fluorobenzyl)-8-hydroxy-5-(2-methoxyacetylamino)[1,6]naphthyridine-7-carboxylic acid (2-diisopropylaminoethyl)amide] | 69 to 70 °C | 141 nM
COCC(=O)Nc1nc(C(=O)NCCOC(C)C)c(O)c2ncc(Cc3ccc(F)cc3)cc12 [Example B-7, 3-(4-fluorobenzyl)-8-hydroxy-5-(2-methoxyacetylamino)[1,6]naphthyridine-7-carboxylic acid (2-isopropoxyethyl)amide] | 149 to 150 °C | 31.9 nM
COCC(=O)Nc1nc(C(=O)NCCC#N)c(O)c2ncc(Cc3ccc(F)cc3)cc12 [Example B-8, 3-(4-fluorobenzyl)-8-hydroxy-5-(2-methoxyacetylamino)[1,6]naphthyridine-7-carboxylic acid (2-cyanoethyl)amide] | 173 to 175 °C | 27.4 nM
COCC(=O)Nc1nc(C(=O)NC(C)C(=O)OC)c(O)c2ncc(Cc3ccc(F)cc3)cc12 (centres unmarked) [Example B-11, Methyl 2-{[3-(4-fluorobenzyl)-8-hydroxy-5-(2-methoxyacetylamino)[1,6]naphthyridine-7-carbonyl]amino}propionate] | 181 to 182 °C | 51 nM
CCOCCNC(=O)c1nc(NC(=O)COC)c2cc(Cc3ccc(F)cc3)cnc2c1O [Example B-14, 3-(4-fluorobenzyl)-8-hydroxy-5-(2-methoxyacetylamino)[1,6]naphthyridine-7-carboxylic acid (2-ethoxyethyl)amide] | 175 to 177 °C | 48.2 nM
COCC(=O)Nc1nc(C(=O)NCCC(=O)OC)c(O)c2ncc(Cc3ccc(F)cc3)cc12 [Example B-15, Methyl 3-([3-(4-fluorobenzyl)-8-hydroxy-5-(2-methoxyacetylamino)[1,6]naphthyridine-7-carbonyl]amino)propionate] | 168 to 170 °C | 44.6 nM
COCCN(C)C(=O)c1nc(NC(=O)COC)c2cc(Cc3ccc(F)cc3)cnc2c1O [Example B-16, 3-(4-fluorobenzyl)-8-hydroxy-5-(2-methoxyacetylamino)[1,6]naphthyridine-7-carboxylic acid (2-methoxyethyl)methylamide] | 66 to 68 °C | 57 nM
Cc1nc(C(=O)NN(C)C)c(O)c2ncc(Cc3ccc(F)cc3)cc12 [Example B-17, 3-(4-fluorobenzyl)-8-hydroxy-5-methyl[1,6]naphthyridine-7-carboxylic acid N′,N′-dimethylhydrazide] | 137 to 139 °C | 16.9 nM
CC(O)c1nc(C(=O)NN(C)C)c(O)c2ncc(Cc3ccc(F)cc3)cc12 (centres unmarked) [Example B-18, 3-(4-fluorobenzyl)-8-hydroxy-5-(1-hydroxyethyl)[1,6]naphthyridine-7-carboxylic acid N′,N′-dimethylhydrazide] | 114 to 116 °C | 44.2 nM
COCC=Cc1nc(C(=O)NN(C)C)c(O)c2ncc(Cc3ccc(F)cc3)cc12 [Example B-19, 3-(4-fluorobenzyl)-8-hydroxy-5-(3-methoxypropenyl)[1,6]naphthyridine-7-carboxylic acid N′,N′-dimethylhydrazide] | 115 to 116 °C | 11.2 nM
COCCNC(=O)C(=O)Nc1nc(C(=O)NN(C)C)c(O)c2ncc(Cc3ccc(F)cc3)cc12 [Example B-25, N-[7-(N′,N′-dimethylhydrazinocarbonyl)-3-(4-fluorobenzyl)-8-hydroxy[1,6]naphthyridine-5-yl]-N′-(2-methoxyethyl)oxalamide] | 167 to 169 °C | 
CN(C)NC(=O)c1nc(NC(=O)C(=O)N(C)C)c2cc(Cc3ccc(F)cc3)cnc2c1O [Example B-26, N-[7-(N′,dimethylhydrazinocarbonyl)-3-(4-fluorobenzyl)-8-hydroxy[1,6]naphthyridine-5-yl]-N′,N′-dimethyl oxalamide] | 125 to 128 °C | 
CNC(=O)C(=O)Nc1nc(C(=O)NCCO)c(O)c2ncc(Cc3ccc(F)cc3)cc12 [Example B-27, N-[3-(4-fluorobenzyl)-8-hydroxy-7-(2-hydroxyethylcarbamoyl)[1,6]naphthyridine-5-yl]-N′-methyl oxalamide] | 136 to 137 °C | 
CNC(=O)C(=O)Nc1nc(C(=O)NC(C)CO)c(O)c2ncc(Cc3ccc(F)cc3)cc12 (centres unmarked) [Example B-28, N-[3-(4-fluorobenzyl)-8-hydroxy-7-(2-hydroxy-1-methylethylcarbamoyl)[1,6]naphthyridine-5-yl]-N′-methyl oxalamide] | 131 to 133 °C | 
